This is an account of results in US7115662B2, “Certain 5-alkyl-2-arylaminophenylacetic acids and derivatives” (Novartis AG, priority 1997, dated 2006).

SMILES strings stand for the structures.

One may read the melting point as the temperature, or range, at which the solid turns liquid.

In the first series the test system is intestinal permeability. Description: intestinal tolerability (51Cr-EDTA intestinal permeability). The note with it: rat; 30 mg/kg p.o.; 51Cr-EDTA urinary excretion over 24 h. Type of series: in vivo. How it is done: Intestinal tolerability can be determined by measuring the effect on intestinal permeability. Lack of increase in permeability is indicative of intestinal tolerability. The method used is a modification of a procedure by Davies, et al., Pharm. Res. 1994; 11:1652–1656 and is based on the fact that excretion of orally administered ^51Cr-EDTA, a marker of small intestinal permeability, is increased by NSAIDs. Groups of rats (≧12/group) are administered a single, oral dose of test compound or vehicle by gastric intubation. Immediately following compound dose, each rat is administered ^51Cr-EDTA (5 μCi/rat) by gastric intubation. The rats are placed in individual metabolic cages and given food and water ad libitum. Urine is collected over a 24 hour period. Twenty-four hours after administration of ^51Cr-EDTA the rats are sacrificed. To quantify compound effect on intestinal permeability, the excreted ^51Cr-EDTA measured in the urine of compound treated rats is compared to the excreted ^51Cr-EDTA measured in the urine of vehicle treated rats. Relative permeability is determined by calculating the activity present in each urine sample as a percent of the administered dose after correcting for background radiation.
As to `CCc1ccc(Nc2c(F)c(F)cc(F)c2F)c(CC(=O)OCC(=O)O)c1` [6(a), carboxymethyl 5-ethyl-2-(2′,3′,5′,6′-tetrafluoroanilino)phenylacetate], the “effect on intestinal permeability” value was “no effect or only a minimal effect”.

The next series has as its system gross gastric ulceration. Description: gastric tolerability assay. In kind it is in vivo. As to conditions: rat; 100 mg/kg p.o.; four hours after administration. How it is done:
The gastric tolerability assay is used to assess gross ulceration in the rat, measured four hours after oral administration of the test compound. The test is carried out as follows: Rats are fasted overnight, administered compound in fortified cornstarch vehicle by gavage, and sacrificed by carbon dioxide inhalation four hours later. The stomachs are removed and gross gastric lesions counted and measured to give the total lesion length per rat. Each experiment contains the following groups (5–6 rats per group): vehicle control, test compounds, and diclofenac as a reference compound. Data are calculated as the mean number of ulcers in a group, the mean length of ulcers (mm) in the group and as the ulcer index (UI). UI=mean length of ulcers in a group×ulcer incidence where ulcer incidence is the fraction of animals in the group with lesions (100% incidence is 1).
As for `CCc1ccc(Nc2c(F)c(F)cc(F)c2F)c(CC(=O)OCC(=O)O)c1` [6(a), carboxymethyl 5-ethyl-2-(2′,3′,5′,6′-tetrafluoroanilino)phenylacetate], the gastric ulcerogenic effect entry was “essentially free of any gastric ulcerogenic effect”.

A further series deals with pain threshold in yeast-inflamed paw. Briefly: Randall-Selitto paw pressure assay. In kind it is in vivo, rat. The note with it: male Wistar rats; 10 mg/kg orally; 1 h after dosing. How it is done:
The analgesic activity of the compounds of the invention is determined using the well-known Randall-Selitto assay.
The Randall-Selitto paw pressure assay measures antinociception (analgesic activity) in inflamed tissue by comparing the pressure threshold in the inflamed paw of the rat after oral administration of test drug with that in the inflamed paw of rats administered corn starch vehicle orally.
Groups of 10 male Wistar rats weighing 40–50 gms are fasted overnight prior to testing. Hyperalgesia is induced by the injection of 0.1 ml of a 20% suspension of Brewer's yeast with a 26 gauge needle into the subplantar region of the right hindpaw. The left paw is not injected and is used as the control paw for determination of hyperalgesia. Vehicle (Fortified corn starch suspension 3%) at 10 ml/kg, reference compound (diclofenac is run in every experiment at the same dose as test compounds) and test compounds at different doses suspended in vehicle at 10 ml/kg are administered orally 2 hours after the yeast injection. The threshold for paw withdrawal is quantified with a Basile Analgesy-meter 1 hour after oral administration of test compounds. The nociceptive threshold is defined as the force in grams at which the rat withdraws its foot or vocalizes. Either vocalization or foot withdrawal is recorded as a response.
The data are analyzed by comparing the mean pain threshold of the corn starch vehicle-treated group for the inflamed and non-inflamed paws to that of individual drug-treated rats. Individual rats in the drug-treated groups and positive control (diclofenac) group are called reactors if the individual pain threshold in each paw exceeds the control group mean threshold by two standard deviations of that mean. The mean pain thresholds of the inflamed paw in the control group are compared to the individual pain thresholds of the inflamed paw in the test drug group. The non-inflamed control mean pressure threshold is compared to the non-inflamed individual pressure thresholds in the test groups. Results are expressed as number of reactors in each test group (n=10) for inflamed and non-inflamed paws. Percentages are calculated by dividing number of reactors by total number of rats used for a compound.
Regarding `CCc1ccc(Nc2c(F)c(F)cc(F)c2F)c(CC(=O)OCC(=O)O)c1` [6(a), carboxymethyl 5-ethyl-2-(2′,3′,5′,6′-tetrafluoroanilino)phenylacetate], the “pain threshold in the inflamed paw” value is “increase the pain threshold” and the “pain threshold in the non-inflamed paw” value is recorded as “no threshold elevation”.

Tested on in another series: not given
Assay: not given
Conditions: not given
On to `CCc1ccc(Nc2c(F)c(F)cc(F)c2F)c(CC(=O)OCC(=O)O)c1` [6(a), carboxymethyl 5-ethyl-2-(2′,3′,5′,6′-tetrafluoroanilino)phenylacetate], for which the melting point lay within 151 to 153 °C.

In turn, `Cc1ccc(Nc2c(F)c(F)cc(F)c2F)c(CC(=O)O)c1` [Example 1(b), 5-methyl-2-(2′,3′,5′,6′-tetrafluoroanilino)phenylacetic acid] came in with a melting point of 153 to 156 °C.

In turn, `Cc1ccc(Nc2c(Cl)cccc2Cl)c(CC(=O)O)c1` [Example 1(c), 5-methyl-2-(2′,6′-dichloroanilino)phenylacetic acid] had a melting point of 168 to 170 °C.

For the molecule `Cc1cc(Cl)c(Nc2ccc(C)cc2CC(=O)O)c(Cl)c1` [Example 1(e), 5-methyl-2-(2′,6′-dichloro-4′-methylanilino)phenylacetic acid], the melting point lay within 179 to 182 °C.

As for `Cc1ccc(Nc2c(C)cccc2Cl)c(CC(=O)O)c1` [Example 1(f), 5-methyl-2-(2′-chloro-6′-methylanilino)phenylacetic acid], the melting point was 138 to 140 °C.

`Cc1ccc(Nc2c(F)cc(Cl)cc2Cl)c(CC(=O)O)c1` [Example 1(h), 5-methyl-2-(2′-fluoro-4′,6′-dichloroanilino)phenylacetic acid] yielded a melting point of 178 to 180 °C.

`Cc1ccc(Nc2c(C)cc(F)cc2Cl)c(CC(=O)O)c1` [Example 1(i), 5-methyl-2-(2′-chloro-4′-fluoro-6′-methylanilino)phenylacetic acid] returned a melting point of 154 to 156 °C.

Turning to `Cc1ccc(Nc2c(F)cc(O)cc2Cl)c(CC(=O)O)c1` [Example 1(j), 5-methyl-2-(2′-chloro-4′-hydroxy-6′-fluoroanilino)phenylacetic acid], the melting point is 180 to 182 °C.

As to `CCc1ccc(Nc2c(F)cccc2Cl)c(CC(=O)O)c1` [Example 2(a), 5-ethyl-2-(2′-fluoro-6′-chloroanilino)phenylacetic acid], the melting point was 147 to 148 °C.

In turn, `CCc1ccc(Nc2c(C)cccc2Cl)c(CC(=O)O)c1` [Example 2(b), 5-ethyl-2-(2′-chloro-6′-methylanilino)phenylacetic acid] had a melting point of 125 to 126 °C.

`CCc1ccc(Nc2c(F)ccc(F)c2F)c(CC(=O)O)c1` [Example 2(c), 5-ethyl-2-(2′,3′,6′-trifluoroanilino)phenylacetic acid] had a melting point of 138 to 140 °C.

For the molecule `CCOc1c(F)c(F)c(Nc2ccc(CC)cc2CC(=O)O)c(F)c1F` [Example 2(d), 5-ethyl-2-(2′,3′,5′,6′-tetrafluoro-4′-ethoxyanilino)phenylacetic acid], the melting point was in the range of 131 to 132 °C.

For the molecule `CCc1ccc(Nc2c(F)cc(F)cc2Cl)c(CC(=O)O)c1` [Example 2(e), 5-ethyl-2-(2′-chloro-4′,6′-difluoroanilino)phenylacetic acid], the melting point was 160 to 162 °C.

On to `CCc1ccc(Nc2c(F)cc(Cl)cc2Cl)c(CC(=O)O)c1` [Example 2(f), 5-ethyl-2-(2′,4′-dichloro-6′-fluoroanilino)phenylacetic acid], for which the melting point lay within 169 to 171 °C.

For `CCc1ccc(Nc2c(C)cc(Cl)cc2Cl)c(CC(=O)O)c1` [Example 3(b), 5-ethyl-2-(2′,4′-dichloro-6′-methylanilino)phenylacetic acid], the melting point lay within 180 to 183 °C.

Molecule `CCc1ccc(Nc2c(Cl)cccc2Cl)c(CC(=O)O)c1` [Example 3(c), 5-ethyl-2-(2′,6′-dichloroanilino)phenylacetic acid] came in with a melting point of 133 to 136 °C.

`CCc1ccc(Nc2c(C)cc(F)cc2F)c(CC(=O)O)c1` [Example 5(b), 5-ethyl-2-(2′,4′-difluoro-6′-methylanilino)phenylacetic acid] yielded a melting point of 143 to 145 °C.

`CCc1ccc(Nc2c(C)cc(F)cc2Cl)c(CC(=O)O)c1` [Example 5(c), 5-ethyl-2-(2′-chloro-4′-fluoro-6′-methylanilino)phenylacetic acid]: the melting point lay within 151 to 154 °C.

Regarding `CCc1ccc(Nc2c(C)cc(Cl)cc2Cl)c(CC(=O)OCC(=O)O)c1` [Example 6(b), carboxymethyl 5-ethyl-2-(2′,4′-dichloro-6′-methylanilino)phenylacetate], the melting point lay within 123 to 125 °C.

`CCc1ccc(Nc2c(Cl)cccc2Cl)c(CC(=O)OCC(=O)O)c1` [Example 6(c), carboxymethyl 5-ethyl-2-(2′,6′-dichloroanilino)phenylacetate]: the melting point is 124 to 126 °C.

For `CCc1ccc(Nc2c(F)cc(F)cc2Cl)c(CC(=O)OCC(=O)O)c1` [Example 6(d), carboxymethyl 5-ethyl-2-(2′,4′-difluoro-6′-chloroanilino)phenylacetate], the melting point lay in the range of 142 to 144 °C.

For the molecule `CCc1ccc(Nc2c(F)cc(Cl)cc2Cl)c(CC(=O)OCC(=O)O)c1` [Example 6(e), carboxymethyl 5-ethyl-2-(2′,4′-dichloro-6′-fluoroanilino)phenylacetate], the melting point fell in the range of 132 to 134 °C.

In turn, `CCc1ccc(Nc2c(F)cccc2Cl)c(CC(=O)OCC(=O)O)c1` [Example 6(f), carboxymethyl 5-ethyl-2-(2′-chloro-6′-fluoroanilino)phenylacetate] yielded a melting point of 106 to 108 °C.

For the molecule `Cc1ccc(Nc2c(F)cc(Cl)cc2Cl)c(CC(=O)OCC(=O)O)c1` [Example 6(g), carboxymethyl 5-methyl-2-(2′-fluoro-4′,6′-dichloroanilino)phenylacetate], the melting point lay within 148 to 150 °C.

On to `Cc1ccc(Nc2c(Cl)cccc2Cl)c(CC(=O)OCC(=O)O)c1` [Example 6(h), carboxymethyl 5-methyl-2-(2′,6′-dichloroanilino)phenylacetate], for which the melting point fell in the range of 125 to 126 °C.

The molecule `Cc1ccc(Nc2c(F)cccc2Cl)c(CC(=O)OCC(=O)O)c1` [Example 6(i), carboxymethyl 5-methyl-2-(2′-chloro-6′-fluoroanilino)phenylacetate] yielded a melting point of 96 to 98 °C.

In turn, `CCc1ccc(Nc2c(F)c(F)cc(F)c2F)c(CC(=O)OC(C)(C)C(=O)O)c1` [Example 8, 1-carboxy-1-methylethyl 5-ethyl-2-(2′,3′,5′,6′-tetrafluoroanilino)phenylacetate] showed a melting point of 104 to 108 °C.

With `Cc1ccc(Nc2c(F)cccc2C(F)(F)F)c(CC(=O)O)c1` [Example 9(a), 5-methyl-2-(2′-fluoro-6′-trifluoromethylanilino)phenylacetic acid], the melting point was 155 to 156 °C.
